Results published in patent US20210343368A1, “Method for Engineering Synthetic Cis-Regulatory DNA” (Max-Delbrück-Centrum für Molekulare Medizin in der …, priority 2018, published 2021).

Legend:
A549 cells [1] = test: IncuCyte longitudinal MGT #1 fluorescence; type: cell-based, human; details: GSK126 together with TGFB signaling
Experimental: IncuCyte: IncuCyte automated longitudinal imaging was performed in 96 wells black walls plates (Greiner). 300,000 cells per plate were seeded to reach optimal confluence at the end of the experiment. GSK126 was aliquoted using a D300e, whereas TGFB1+2 were manually aliquoted to each well. Both were refreshed every second day. The last timepoint was independently verified using a plate reader (BMC Clariostar).
Ezh2 inhibition can support Kras-driven EMT in several mouse and human lung cancer cells^41. In this setting, we tested the use of sLCRs in reflecting cellular and molecular responses to biological and chemical stimuli.

A549 cells [2] = test: FACS profile of MGT #1 expression and cell morphology; type: cell-based, human
Experimental: FACS analysis: Analysis was performed with FlowJo_V10.

A549-MGT #1low cells = test: Cytokine screening, microplate reader MGT #1 fluorescence; type: cell-based, human; details: cytokine combined with GSK126
Experimental: Phenotypic screening: Tumor cells were propagated as described above until the screening. Then we seeded 15′000/50 μl/well in 384 well plates (Corning), in Gibco FluoroBrite DMEM medium supplemented with the appropriate growth factors. Cells were dispensed as 50 μl suspension into each well using the SPARK20M Injector system (50 μl injection volume; 100 μl/s injection speed). For non-adherent cells (e.g. GICs), cells were further centrifuge at 1500 rpm for 1 h30 min at 37° C. Bottom reading fluorescence was scanned using a SPARM 20M TECAN plate reader at 37° C. in a 5% CO2-95% air (3% for GICs) in a humidified cassette, with the following settings for mVenus: Monochromator, Ex 505 nm±20 nm, Em 535 nm±7.5 nm, manual gain:198, flashes: 35, Integration time:40 μs. In independent replicas, cell viability was measured with 0.02% AlamarBlue solution in FluoroBrite medium with the following settings: Fluorescence Top reading. Monochromator, Ex 565 nm±10 nm, Em 592 nm±10 nm, manual gain: 88, flashes: 30, Integration time:40 μs.
DMSO-soluble compounds such as GSK126, were robotically aliquoted using a D300e, whereas cytokines were robotically aliquoted to each well using an Andrew pipetting robot (AndrewAlliance), using the following concentrations:
To exploit Ezh2 inhibition and MGT #1 as a framework to clarify the signaling basis of EMT in NSCLC cells, we next performed a cytokine screening in GSK126- and vehicle-treated A549-MGT #1^low cells.

MCF7 cells = test: FACS of MGT #1 expression in breast cancer cells; type: cell-based; details: short-term treatment
Experimental: (§1) The MCF7, MDA-231, A549 and H1944, cell lines (kindly provided by the Rene Bernards lab, NKI) were cultured in RPMI medium. All cell lines were supplemented with 10% FBS, and 5% penicillin and streptomycin at 37° C. in a 5% CO2-95% air incubator.
(§2) Tumor subtypes are genetically engraved in breast cancer cells^40. […] To confirm that MGT #1 expression reflects that actual breast cancer subtype identity, we FACS sorted and sub-cloned the top MCF7-MGT #1 and the mid MDA-231-MGT #1 expressing cells. Nevertheless, further propagation of the FACS-sorted populations reestablished pre-sorting homeostasis, with MCF7 expressing lower levels of MGT #1 than MDA-231.

MDA-231 cells = test: FACS of MGT #1 expression in breast cancer cells; type: cell-based; details: short-term treatment
Experimental: as §1, §2

| Molecule | MGT #1 fluorescence, longitudinal measurement (A549 cells [1]) | MGT #1 activation by flow cytometry (A549 cells [2]; combination of TGFB signaling and GSK126) | cell morphology change (A549 cells [2]; single treatment) | MGT #1 expression by flow cytometry (A549 cells [2]; single treatment, early time point) | MGT #1 expression, fluorescence output (A549-MGT #1low cells) | change of basal MGT #1 fluorescence (MCF7 cells) | change of basal MGT #1 fluorescence (MDA-231 cells) |
| --- | --- | --- | --- | --- | --- | --- | --- |
| CC[C@H](C)n1cc(C)c2c(C(=O)NCc3c(C)cc(C)[nH]c3=O)cc(-c3ccc(N4CCNCC4)nc3)cc21 [GSK126] | cooperatively induced | synergistically induce MGT #1 activation | did not induce a cellular morphology changes | induces molecular transitions to a similar extent | modest additive effect | – | – |
| TGFB2: EMT inducer (protein, UniProt P61812 303-414, looked up) Transforming growth factor …: ALDAAYCFRNVQDNCCLRPLYIDFKRDLGWKWIHEPKGYNANFCAGACPYLWSSDTQHSRVLSLYNTINPEASASPCCVSQDLEPLTILYYIGKTPKIEQLSNMIVKSCKCS | – | – | – | – | – | did not strongly modify the basal MGT #1 fluorescence | did not strongly modify the basal MGT #1 fluorescence |
